Measured values as given in patent US20140357713A1, “ANTIMICROBIAL COMPOUNDS AND METHODS OF USE” (NexMed Holdings, Inc., priority 2012, published 2014).
Structures can show the parent of a compound that is named as a salt.

How the values were obtained:
Assay in all cases: MIC assay with different strains, Example 35
Assay type in all cases: cell-based
[1] = tested on: Staphylococcus hominis (ATCC 27844)
Method: (§1) The minimum inhibitory concentration (MIC) is used to determine the lowest concentration of a test product claiming antimicrobial effects that will inhibit growth of a microorganism. Each microbial suspension was adjusted approximately 10^7 to 10^8 colony forming units (CFU) per mL and labeled as the stock suspension. The stock suspension was further diluted to 1:200 in Mueller Hinton broth to obtain a test sample having a concentration of […]. The test sample was then tested for MIC as described in M202.R02. After incubation, each tube was examined for turbidity, which indicated growth or no growth. For the tubes where the product rendered the media turbid, an aliquot of the media was streaked onto agar plates to confirm growth or lack of growth.

[2] = tested on: Escherichia coli ATCC 25922
Method: as §1

[3] = tested on: Enterococcus faecalis (ATCC 19433)
Method: as §1

[4] = tested on: Escherichia coli (ATCC 11229)
Method: as §1

[5] = tested on: Haemophilus influenza (ATCC 19418)
Method: as §1

[6] = tested on: Staphylococcus haemolyticus (ATCC 29970)
Method: as §1

[7] = tested on: Acinetobacter iwoffi (ATCC 15309)
Method: as §1

[8] = tested on: Pseudomonas aeruginosa (ATCC 9027)
Method: as §1

[9] = tested on: Klebsiella oxytoca (ATCC 43165)
Method: as §1

[10] = tested on: Staphylococcus epidermidis (ATCC 12228)
Method: as §1

[11] = tested on: Bacillus subtilis (ATCC 6633)
Method: as §1

[12] = tested on: Serratia marcescens (ATCC 14756)
Method: as §1

[13] = tested on: Acinetobacter baumannii (ATCC 19606)
Method: as §1

[14] = tested on: Klebsiella pneumonia (ATCC 11296)
Method: as §1

[15] = tested on: Staphylococcus aureus (MRSA) (ATCC 33592)
Method: as §1

Compound: CCCCCCCCCCCCOC(=O)C(C)N(C)C (stereo not shown) [Nex-05, Dodecyl 2-(dimethylamino)propanoate hydrochloride]
- MIC ([1]; Example 35): 0.625%
- Growth/no growth ([1]; Sample Concentration 0.039%): Growth
- Growth/no growth ([1]; Sample Concentration 0.078%): Growth
- Growth/no growth ([1]; Sample Concentration 0.156%): Growth
- Growth/no growth ([1]; Sample Concentration 0.313%): Growth
- MIC ([2]; Example 35): 1.25%
- Growth/no growth ([2]; Sample Concentration 0.039%): Growth
- Growth/no growth ([2]; Sample Concentration 0.078%): Growth
- Growth/no growth ([2]; Sample Concentration 0.156%): Growth
- Growth/no growth ([2]; Sample Concentration 0.313%): Growth
- Growth/no growth ([2]; Sample Concentration 0.625%): Growth
- MIC ([3]; Example 35): 1.25%
- Growth/no growth ([3]; Sample Concentration 0.039%): Growth
- Growth/no growth ([3]; Sample Concentration 0.078%): Growth
- Growth/no growth ([3]; Sample Concentration 0.156%): Growth
- Growth/no growth ([3]; Sample Concentration 0.313%): Growth
- Growth/no growth ([3]; Sample Concentration 0.625%): Growth
- MIC ([4]; Example 35): 0.625%
- Growth/no growth ([4]; Sample Concentration 0.039%): Growth
- Growth/no growth ([4]; Sample Concentration 0.078%): Growth
- Growth/no growth ([4]; Sample Concentration 0.156%): Growth
- Growth/no growth ([4]; Sample Concentration 0.313%): Growth
- MIC ([5]; Example 35): 5%
- Growth/no growth ([5]; Sample Concentration 0.039%): Growth
- Growth/no growth ([5]; Sample Concentration 0.078%): Growth
- Growth/no growth ([5]; Sample Concentration 0.156%): Growth
- Growth/no growth ([5]; Sample Concentration 0.313%): Growth
- Growth/no growth ([5]; Sample Concentration 0.625%): Growth
- Growth/no growth ([5]; Sample Concentration 1.25%): Growth
- Growth/no growth ([5]; Sample Concentration 2.5%): Growth
- MIC ([6]; Example 35): 0.313%
- Growth/no growth ([6]; Sample Concentration 0.039%): Growth
- Growth/no growth ([6]; Sample Concentration 0.078%): Growth
- Growth/no growth ([6]; Sample Concentration 0.156%): Growth
- MIC ([7]; Example 35): 0.156%
- Growth/no growth ([7]; Sample Concentration 0.039%): Growth
- Growth/no growth ([7]; Sample Concentration 0.078%): Growth
- MIC ([8]; Example 35): 1.25%
- Growth/no growth ([8]; Sample Concentration 0.039%): Growth
- Growth/no growth ([8]; Sample Concentration 0.078%): Growth
- Growth/no growth ([8]; Sample Concentration 0.156%): Growth
- Growth/no growth ([8]; Sample Concentration 0.313%): Growth
- MIC ([9]; Example 35): 1.25%
- Growth/no growth ([9]; Sample Concentration 0.039%): Growth
- Growth/no growth ([9]; Sample Concentration 0.078%): Growth
- Growth/no growth ([9]; Sample Concentration 0.156%): Growth
- Growth/no growth ([9]; Sample Concentration 0.313%): Growth
- Growth/no growth ([9]; Sample Concentration 0.625%): Growth
- MIC ([10]; Example 35): 0.313%
- Growth/no growth ([10]; Sample Concentration 0.039%): Growth
- Growth/no growth ([10]; Sample Concentration 0.078%): Growth
- Growth/no growth ([10]; Sample Concentration 0.156%): Growth
- MIC ([11]; Example 35): 0.313%
- Growth/no growth ([11]; Sample Concentration 0.039%): Growth
- Growth/no growth ([11]; Sample Concentration 0.078%): Growth
- Growth/no growth ([11]; Sample Concentration 0.156%): Growth
- MIC ([12]; Example 35): 2.5%
- Growth/no growth ([12]; Sample Concentration 0.039%): Growth
- Growth/no growth ([12]; Sample Concentration 0.078%): Growth
- Growth/no growth ([12]; Sample Concentration 0.156%): Growth
- Growth/no growth ([12]; Sample Concentration 0.313%): Growth
- Growth/no growth ([12]; Sample Concentration 0.625%): Growth
- Growth/no growth ([12]; Sample Concentration 1.25%): Growth
- MIC ([13]; Example 35): 0.313%
- Growth/no growth ([13]; Sample Concentration 0.039%): Growth
- Growth/no growth ([13]; Sample Concentration 0.078%): Growth
- Growth/no growth ([13]; Sample Concentration 0.156%): Growth
- MIC ([14]; Example 35): 0.625%
- Growth/no growth ([14]; Sample Concentration 0.039%): Growth
- Growth/no growth ([14]; Sample Concentration 0.078%): Growth
- Growth/no growth ([14]; Sample Concentration 0.156%): Growth
- MIC ([15]; Example 35): 0.625%
- Growth/no growth ([15]; Sample Concentration 0.039%): Growth
- Growth/no growth ([15]; Sample Concentration 0.078%): Growth
- Growth/no growth ([15]; Sample Concentration 0.156%): Growth
- Growth/no growth ([15]; Sample Concentration 0.313%): Growth
